Measurements taken from US8952036B2, “Benzoic acid derivative MDM2 inhibitor for the treatment of cancer” (Amgen Inc., priority 2013, dated 2015).
Entries after “also recorded” stand apart in the source; their conditions may differ. Read-outs that look alike come from different tables or passages of the source.

What was measured:
[1] = tested on: CYP3A4; conditions: human, 48 h; for CYP3A4 mRNA induction: hepatocytes
From the text: (§1) Human Hepatocyte CYP1A2, CYP2B6, and CYP3A4 Induction Assay
(§2) Materials. […] Insulin-transferrin-selenium supplement (ITS), penicillin-streptomycin-L-glutamine supplement (PSG), fetal bovine serum (FBS), phosphate-buffered saline (PBS), cryopreserved hepatocyte recovery medium (CHRM), and three individual-donor lots of cryopreserved adult human hepatocytes were obtained from Life Technologies (Grand Island, N.Y.). Collagen I-precoated 24-well plates and hydroxybupropion were acquired from Becton Dickinson Labware (Bedford, Mass.). Branched DNA (b-DNA) probe sets for human CYP1A2, CYP2B6, CYP3A4, and 18S rRNA and the Panomics Discovery XL Kit were purchased from Affymetrix Inc. (Santa Clara, Calif.).
In vitro Methods. […] Individual lots were plated in collagen-coated 24-well plates with approximately 0.38×10^6 cells/well. […] After the attachment period, the plating medium and unattached cells were removed by aspiration and 37° C. HMM was added to each well (0.5 mL/well), and the cells were incubated overnight. On Day 2, the medium was aspirated and fresh 37° C. HMM was reapplied to the cells for an overnight acclimation period. […] The Example compounds to be tested were prepared in DMSO stock solutions resulting in final incubation concentrations of 0.1% DMSO. Example compound treatment was maintained for a total of 48 hours. On Day 5, the medium was aspirated, and the hepatocytes were gently washed one time with KHB (37° C., pH 7.4). The KHB was removed, and a second application of KHB was administered (0.5 mL/well). The hepatocytes were placed back into the incubator and allowed to acclimate to the KHB for 10 minutes. P450 enzyme activities were subsequently determined by the addition of marker substrates phenacetin (100 μM, CYP1A2 probe substrate, 30-minute incubation) bupropion hydrochloride (100 μM, CYP2B6 probe substrate, 20-minute incubation), and testosterone (200 μM, CYP3A4 probe substrate, 14-minute incubation) which were dissolved in KHB (37° C., pH 7.4, 0.5 mL/well). After the substrate incubation periods, the buffers were collected and stored at −80° C. until analyzed. Hepatocytes used for mRNA analysis were washed once in PBS (0.5 mL/well, 25° C., containing calcium and magnesium) and protocol-prepared b-DNA lysis buffer was added to each well (0.5 mL/well). The hepatocytes were lysed by gently pipetting the lysis buffer up and down five times, and the plates were stored at −80° C. until analysis.
P450 mRNA Analysis. CYP1A2, CYP2B6, and CYP3A4 mRNA content was determined with branched DNA (b-DNA) signal amplification technology using the Panomics Discover XL Kit with assays performed according to the manufacturer's instructions. b-DNA probe sets containing capture extender, label extender, and blocking probes for human CYP1A2, CYP2B6, CYP3A4, and 18S rRNA were purchased from Affymetrix Inc. Plate washing steps were performed on an Elx405 automated microplate washer (BioTek Instruments Inc., Winooski, Vt.), and luminescence was analyzed on a Luminoskan Ascent microplate luminometer (Thermo Lab Systems, Helsinki, Finland). P450 mRNA levels were normalized to the mRNA levels of the housekeeping gene 18S rRNA.
(§3) Data Reporting. For each P450 isoform for mRNA analysis, fold increases over vehicle control (with vehicle control set to 1.0) were calculated for positive controls and each treatment group for the Example compounds.

[2] = Human Hepatocyte Intrinsic Clearance Assay; conditions: human, cryopreserved human hepatocytes pooled from 20 donors
Procedure: (§4) Cryopreserved human hepatocytes pooled from 20 donors (Celsis-In Vitro Technologies, Baltimore, Md.) were used to determine the intrinsic clearance of the Example compounds. […] At 0, 5, 15, 30, 60 and 90 minutes, aliquots of incubation mixture were removed from the incubator, and quenched with acetonitrile containing 0.1% (v/v) formic acid and internal standard (7-hydroxy-4-trifluoromethylcoumarin). Samples were then centrifuged at 5700 rpm (6100 g) at 4° C. for 10 minutes. Supernatants were transferred to a sample plate, mixed with equal volume of water containing 0.1% formic acid, and analyzed using LC-MS/MS.
(§5) The LC-MS/MS system for sample analysis consisted of a reverse phase UHPLC (Shimadzu Model Nexera LC-30AD, Shimadzu Scientific Instruments, Inc, Columbia, Md.) interfaced with an API4000 triple quadruple mass spectrometer operating in negative ion mode (Applied Biosystems, Inc., Foster City, Calif.). Chromatographic separation was achieved using a Phenomenex Kinetex Luna C18 column (Phenomenex, Torrance, Calif.) (2×50 mm, 2.6 μm) maintained at 55° C. with a mobile phase flow rate of 1.2 mL/min. The mobile phase consisted of 0.1% formic acid in water (A) and 0.1% formic acid in acetonitrile (B).

[3] = tested on: Cryopreserved human hepatocytes; test: Human Hepatocyte Intrinsic Clearance Assay; conditions: for human hepatocyte clearance (comparison): comparison between Examples, in words
Procedure: as §4, §5

[4] = tested on: CYP1A2, CYP2B6 or CYP3A4; test: Human Hepatocyte CYP1A2, CYP2B6, and CYP3A4 Induction Assay (summary); format: in vitro ADME; conditions: human hepatocytes, mRNA
From the text: as §1, §2
In vitro Methods. […] Individual lots were plated in collagen-coated 24-well plates with approximately 0.38×10^6 cells/well. […] After the attachment period, the plating medium and unattached cells were removed by aspiration and 37° C. HMM was added to each well (0.5 mL/well), and the cells were incubated overnight. On Day 2, the medium was aspirated and fresh 37° C. HMM was reapplied to the cells for an overnight acclimation period. […] The Example compounds to be tested were prepared in DMSO stock solutions resulting in final incubation concentrations of 0.1% DMSO. Example compound treatment was maintained for a total of 48 hours. […] P450 enzyme activities were subsequently determined by the addition of marker substrates phenacetin (100 μM, CYP1A2 probe substrate, 30-minute incubation) bupropion hydrochloride (100 μM, CYP2B6 probe substrate, 20-minute incubation), and testosterone (200 μM, CYP3A4 probe substrate, 14-minute incubation) which were dissolved in KHB (37° C., pH 7.4, 0.5 mL/well). After the substrate incubation periods, the buffers were collected and stored at −80° C. until analyzed. […]
as §3

| SMILES | mRNA % of Positive Control (one donor) ([1]; 0.1 μM) [%] | mRNA % of Positive Control (one donor) ([1]; 1 μM) [%] | mRNA % of Positive Control (one donor) ([1]; 10 μM) [%] | CYP3A4 mRNA induction [1] | hepatocyte CLint at 500 nM [2] [µL/min/1e6 cells] | Human hepatocyte CLint assay (μL/min/10^6 cells) ([3]; 500 nM, pooled human hepatocytes 1 million cells/mL) | human hepatocyte clearance (comparison) [3] | Induction Assay Summary [4] | mRNA % of Positive Control (Donor One) ([1]; 0.1 μM) [%] | mRNA % of Positive Control (Donor Three) ([1]; 0.1 μM) [%] | mRNA % of Positive Control (Donor Two) ([1]; 0.1 μM) [%] | mRNA % of Positive Control (Donor One) ([1]; 1 μM) [%] | mRNA % of Positive Control (Donor Three) ([1]; 1 μM) [%] | mRNA % of Positive Control (Donor Two) ([1]; 1 μM) [%] | mRNA % of Positive Control (Donor One) ([1]; 10 μM) [%] | mRNA % of Positive Control (Donor Three) ([1]; 10 μM) [%] | mRNA % of Positive Control (Donor Two) ([1]; 10 μM) [%] |
| --- | --- | --- | --- | --- | --- | --- | --- | --- | --- | --- | --- | --- | --- | --- | --- | --- | --- |
| COc1cc(NC(=O)C[C@@]2(C)C[C@H](c3cccc(Cl)c3)[C@@H](c3ccc(Cl)c(F)c3)N([C@H](CS(=O)(=O)C(C)(C)C)C3CC3)C2=O)ccc1C(=O)O [Example 5, 4-(2-((3R,5R,6S)-1-((S)-2-(tert-Butylsulfonyl)-1-cyclopropylethyl)-6-(4-chloro-3-fluorophenyl)-5-(3-chlorophenyl)-3-methyl-2-oxopiperidin-3-yl)acetamido)-2-methoxybenzoic acid] | −1.49 | 0.34 | 0.98 | does not show CYP3A4 mRNA induction | 1.45 | 1.45 | lower human hepatocyte clearance than either of the compounds of Examples 1 or 4; also recorded: lower human hepatocyte clearance than any of Examples 1 to 4 | None |  |  |  |  |  |  |  |  |  |
| CC(C)(C)S(=O)(=O)C[C@H](C1CC1)N1C(=O)[C@@](C)(CC(=O)Nc2ccccc2)C[C@H](c2cccc(Cl)c2)[C@H]1c1ccc(Cl)cc1 [Example 3, 2-((3R,5R,6S)-1-((S)-2-(tert-Butylsulfonyl)-1-cyclopropylethyl)-5-(3-chlorophenyl)-6-(4-chlorophenyl)-3-methyl-2-oxopiperidin-3-yl)-N-phenylacetamide] |  |  |  | exhibit CYP3A4 mRNA induction | 28 |  | further increases | CYP3A4 | 1.71 | 0.15 | 4.95 | 17.15 | 3.21 | 10.38 | 37.77 | 37.60 | 45.78 |
| CC(C)(C)S(=O)(=O)C[C@H](C1CC1)N1C(=O)[C@@](C)(CC(=O)O)C[C@H](c2cccc(Cl)c2)[C@H]1c1ccc(Cl)c(F)c1 [Example 4, 2-((3R,5R,6S)-1-((S)-2-(tert-Butylsulfonyl)-1-cyclopropylethyl)-6-(4-chloro-3-fluorophenyl)-5-(3-chlorophenyl)-3-methyl-2-oxopiperidin-3-yl)acetic acid] |  |  |  |  | 26 |  | higher human hepatocyte clearance than the compound of Example 1 | None | 1.62 | 0.42 | 2.30 | 2.96 | 0.47 | 7.29 | 10.14 | 3.07 | 12.51 |
| CC(C)(C)S(=O)(=O)C[C@H](C1CC1)N1C(=O)[C@@](C)(CC(N)=O)C[C@H](c2cccc(Cl)c2)[C@H]1c1ccc(Cl)cc1 [Example 2, 2-((3R,5R,6S)-1-((S)-2-(tert-Butylsulfonyl)-1-cyclopropylethyl)-5-(3-chlorophenyl)-6-(4-chlorophenyl)-3-methyl-2-oxopiperidin-3-yl)acetamide] |  |  |  |  | 26 |  | hepatocyte clearance increases |  |  |  |  |  |  |  |  |  |  |
